From US20090143279A1 (priority 2007, published 2009)
Where two headings read alike, the source gives them in different places. Where a SMILES comes first, the peptide text is derived from it. Bridges are numbered along the chain shown (N, C = ends). [ ]: non-standard residue; d: D form. The star is where a group is joined. Ileψ(thiazoline)Cys = CC[C@H](C)[C@H](N)C1=N[C@H](C(=O)*)CS1; dOrn = NCCC[C@@H](N)C(=O)O

How the values were obtained:
reactive oxygen species = type: cell-based, mouse; conditions: for ROS (composite Z-score): normalized score vs mock-treated (DMSO) wells
C2C12 myotubes = conditions: for Viability (composite Z-score): normalized score vs mock-treated (DMSO) wells
mtOXPHOS transcripts = type: cell-based, mouse; conditions: for mitoOX (composite Z-score): normalized score vs mock-treated (DMSO) wells
[1] = system: mitochondrial membrane potential; type: cell-based, mouse; conditions: for ΔΨm (composite Z-score): normalized score vs mock-treated (DMSO) wells
nuOXPHOS transcripts = type: cell-based, mouse; conditions: for nucOX (composite Z-score): normalized score vs mock-treated (DMSO) wells
[2] = system: cellular dehydrogenase activity; conditions: for MTT (composite Z-score): normalized score vs mock-treated (DMSO) wells
OXPHOS gene expression = type: cell-based, mouse; conditions: for GE-HTS (composite Z-score): normalized score vs mock-treated (DMSO) wells
cytochrome c = type: cell-based, mouse; conditions: for cyt c (composite Z-score): normalized score vs mock-treated (DMSO) wells
[3] = composite Z-score vs DMSO, Conc 20 μM
[4] = 20 μM, composite Z-score vs DMSO
[5] = 25.78 μM, composite Z-score vs DMSO
[6] = composite Z-score vs DMSO wells, Conc 20 μM
[7] = normalized composite Z-score vs mock-treated (DMSO) wells, Conc 20 μM
[8] = composite Z-score vs mock-treated (DMSO) wells, concentration of each compound in μM

CN[C@@H]1[C@@H](O[C@H]2O[C@H](CO)[C@@H](N)[C@H](O)[C@H]2O)OC2C[C@@H](N)[C@@H](O[C@H]3[C@H](O)[C@@H](O)[C@H](N)C[C@@H]3N)OC2[C@@H]1O (some centres unmarked) [apramycin]
ROS (reactive oxygen species; [3]): −0.105 | Viability (C2C12 myotubes; [3]): −1.979 | mitoOX (mtOXPHOS transcripts; [3]): 0.494 | ΔΨm [1, 3]: −0.407 | nucOX (nuOXPHOS transcripts; [3]): 0.413 | MTT [2, 3]: −0.808 | GE-HTS (OXPHOS gene expression; [3]): 0.477 | cyt c (cytochrome c; [3]): 0.223

COC(=O)C1=CCCN(C)C1 [arecoline]
ROS (reactive oxygen species; [4]): −1.032 | ROS (reactive oxygen species; [5]): −1.084 | Viability (C2C12 myotubes; [4]): 0.018 | Viability (C2C12 myotubes; [5]): 0.481 | mitoOX (mtOXPHOS transcripts; [4]): −1.072 | mitoOX (mtOXPHOS transcripts; [5]): −0.513 | ΔΨm [1, 4]: −0.451 | ΔΨm [1, 5]: −0.281 | nucOX (nuOXPHOS transcripts; [4]): −0.261 | nucOX (nuOXPHOS transcripts; [5]): 0.385 | MTT [2, 4]: −0.452 | MTT [2, 5]: −0.607 | GE-HTS (OXPHOS gene expression; [4]): −0.545 | GE-HTS (OXPHOS gene expression; [5]): 0.098 | cyt c (cytochrome c; [4]): 0.839 | cyt c (cytochrome c; [5]): 0.503

C[C@@H]1CC[C@H]2[C@@H](C)C(=O)O[C@@H]3O[C@@]4(C)CC[C@@H]1[C@]32OO4 [artemisinin]
ROS (reactive oxygen species; [6]): 0.123 | Viability (C2C12 myotubes; [6]): 0.336 | mitoOX (mtOXPHOS transcripts; [6]): 0.903 | ΔΨm [1, 6]: −0.832 | nucOX (nuOXPHOS transcripts; [6]): 0.537 | MTT [2, 6]: 0.616 | GE-HTS (OXPHOS gene expression; [6]): 0.704 | cyt c (cytochrome c): 0.522 | cyt c (cytochrome c; [6]): 1.104

CCCCCC(=O)Cc1cc(O)cc(O)c1C(=O)Oc1cc(CC(=O)CCCCC)c(C(=O)O)c(OC)c1 [arthonioic acid]
ROS (reactive oxygen species; [3]): 1.167 | Viability (C2C12 myotubes; [3]): −0.413 | mitoOX (mtOXPHOS transcripts; [3]): −0.657 | ΔΨm [1, 3]: −0.493 | nucOX (nuOXPHOS transcripts; [3]): −0.590 | MTT [2, 3]: −2.597 | GE-HTS (OXPHOS gene expression; [3]): −0.668 | cyt c (cytochrome c; [3]): −0.019

CC1=CC(=O)C2=C(C)C[C@H](O)[C@@H]3[C@H](OC(=O)[C@H]3C)[C@H]12 [austricine]
ROS (composite Z-score) (reactive oxygen species; Conc 20 μM): 0.665 | Viability (composite Z-score) (C2C12 myotubes; Conc 20 μM): −0.394 | mitoOX (composite Z-score) (mtOXPHOS transcripts; Conc 20 μM): 0.349 | ΔΨm (composite Z-score) ([1]; Conc 20 μM): −0.711 | nucOX (composite Z-score) (nuOXPHOS transcripts; Conc 20 μM): 0.081 | MTT (composite Z-score) ([2]; Conc 20 μM): −1.268 | GE-HTS (composite Z-score) (OXPHOS gene expression; Conc 20 μM): 0.165 | cyt c (composite Z-score) (cytochrome c; Conc 20 μM): 0.842

C#CCCCCCCCCCCCC(O)CC(O)CO (centres unmarked) [avocadyne]
ROS (reactive oxygen species; [3]): 0.611 | ROS (reactive oxygen species; [7]): 0.322 | Viability (C2C12 myotubes; [3]): −0.546 | Viability (C2C12 myotubes; [7]): 0.816 | mitoOX (mtOXPHOS transcripts; [3]): −0.897 | mitoOX (mtOXPHOS transcripts; [7]): 0.242 | ΔΨm [1, 3]: −0.029 | ΔΨm [1, 7]: −0.266 | nucOX (nuOXPHOS transcripts; [3]): −1.019 | nucOX (nuOXPHOS transcripts; [7]): 0.457 | MTT [2, 3]: −0.646 | MTT [2, 7]: −0.369 | GE-HTS (OXPHOS gene expression; [3]): −1.062 | GE-HTS (OXPHOS gene expression; [7]): 0.405 | cyt c (cytochrome c; [3]): −0.049 | cyt c (cytochrome c; [7]): 0.738

C/C=C(\C)C(=O)O[C@H]1C[C@@H](OC(C)=O)[C@@]2(C(=O)OC)CO[C@H]3[C@@H](O)[C@@](C)([C@]45O[C@@]4(C)[C@H]4C[C@@H]5O[C@@H]5OC=C[C@@]54O)[C@H]4[C@]1(CO[C@]4(O)C(=O)OC)[C@@H]32 [azadirachtin]
ROS (reactive oxygen species; [3]): 0.494 | Viability (C2C12 myotubes; [3]): −0.479 | mitoOX (mtOXPHOS transcripts; [3]): 0.042 | ΔΨm [1, 3]: −0.670 | nucOX (nuOXPHOS transcripts; [3]): 0.152 | MTT [2, 3]: −1.018 | GE-HTS (OXPHOS gene expression; [3]): 0.119 | cyt c (cytochrome c; [3]): −0.421

CC[C@H](C)[C@H](N)C1=N[C@H](C(=O)N[C@@H](CC(C)C)C(=O)N[C@H](CCC(=O)O)C(=O)N[C@H](C(=O)N[C@H]2CCCCNC(=O)[C@H](CC(N)=O)NC(=O)[C@@H](CC(=O)O)NC(=O)[C@H](Cc3cnc[nH]3)NC(=O)[C@@H](Cc3ccccc3)NC(=O)[C@H]([C@@H](C)CC)NC(=O)[C@@H](CCCN)NC2=O)[C@@H](C)CC)CS1 [bacitracin] ({Ileψ(thiazoline)Cys}-L[dE]IK[dOrn]I[dF]H[dD]N; lactam 4-C)
ROS (reactive oxygen species; [4]): 1.177 | ROS (reactive oxygen species; [8]): 0.105 | Viability (C2C12 myotubes; [4]): −0.312 | Viability (C2C12 myotubes; [8]): −0.938 | mitoOX (mtOXPHOS transcripts; [4]): 0.798 | mitoOX (mtOXPHOS transcripts; [8]): −0.189 | ΔΨm [1, 4]: −0.113 | ΔΨm [1, 8]: −0.214 | nucOX (nuOXPHOS transcripts; [4]): 1.374 | nucOX (nuOXPHOS transcripts; [8]): −0.736 | MTT [2, 4]: −0.826 | MTT [2, 8]: −0.310 | GE-HTS (OXPHOS gene expression; [4]): 1.271 | GE-HTS (OXPHOS gene expression; [8]): −0.592 | cyt c (cytochrome c; [4]): 0.305 | cyt c (cytochrome c; [8]): −0.806

COc1cc2c3cc1Oc1cc(ccc1O)CC1c4c(cc(OC)c(O)c4Oc4ccc(cc4)CC3N(C)CC2)CCN1C (centres unmarked) [bebeerine]
ROS (composite Z-score) (reactive oxygen species; Conc 20 μM): 0.759 | Viability (composite Z-score) (C2C12 myotubes; Conc 20 μM): −0.728 | mitoOX (composite Z-score) (mtOXPHOS transcripts; Conc 20 μM): 0.119 | ΔΨm (composite Z-score) ([1]; Conc 20 μM): −0.800 | nucOX (composite Z-score) (nuOXPHOS transcripts; Conc 20 μM): −0.028 | MTT (composite Z-score) ([2]; Conc 20 μM): −1.681 | GE-HTS (composite Z-score) (OXPHOS gene expression; Conc 20 μM): −0.005 | cyt c (composite Z-score) (cytochrome c; Conc 20 μM): 0.389

COc1cc2c3cc1Oc1c(OC)c(OC)cc4c1[C@@H](Cc1ccc(O)c(c1)Oc1ccc(cc1)C[C@@H]3N(C)CC2)N(C)CC4 [berbamine]
ROS (reactive oxygen species; [3]): 0.153 | Viability (C2C12 myotubes; [3]): −1.126 | mitoOX (mtOXPHOS transcripts; [3]): −0.636 | ΔΨm [1, 3]: −0.289 | nucOX (nuOXPHOS transcripts; [3]): −0.166 | MTT [2, 3]: −1.021 | GE-HTS (OXPHOS gene expression; [3]): −0.345 | cyt c (cytochrome c; [3]): 0.445

CC12CCCC(O)(C1)C1CC(C)(C)C1CC2 (stereo not drawn) [beta-caryophyllene alcohol]
ROS (reactive oxygen species; [7]): 1.180 | Viability (C2C12 myotubes; [7]): −0.960 | mitoOX (mtOXPHOS transcripts; [7]): 0.264 | ΔΨm [1, 7]: −0.433 | nucOX (nuOXPHOS transcripts; [7]): 0.105 | MTT [2, 7]: −1.859 | GE-HTS (OXPHOS gene expression; [7]): 0.155 | cyt c (cytochrome c; [7]): −1.030
